Assay results from ChEMBL document CHEMBL3862012, “Methylene versus carbonyl bridge in the structure of new tubulin polymerization inhibitors with tricyclic A-rings” (Bioorg Med Chem, 2016).

Assay: Cytotoxicity against human IGROV1 cells assessed as growth inhibition at 10 uM after 48 hrs by SRB assay relative to control
Type: functional
Details: IGROV-1, 48 h, read-out: GI

Row | Compound | inhibition of growth at 10 µM [%]
1 | COc1ccc(CN2c3ccccc3Sc3ccccc32)c(C(F)(F)F)c1 | 57
2 | COc1ccc(CN2c3ccccc3Oc3ccccc32)cc1F | 48
3 | COc1ccc(CN2c3ccccc3Oc3ccccc32)cc1O | 55

Assay: Cytotoxicity against human DU145 cells assessed as growth inhibition at 10 uM after 48 hrs by SRB assay relative to control
Type: functional
Details: DU-145, 48 h, read-out: GI

Row | Compound | inhibition of growth at 10 µM [%]
4 | COc1ccc(CN2c3ccccc3Sc3ccccc32)c(C(F)(F)F)c1 | 79
5 | COc1ccc(CN2c3ccccc3Oc3ccccc32)cc1F | 4
6 | COc1ccc(CN2c3ccccc3Oc3ccccc32)cc1O | 63

Assay: Cytotoxicity against human HOP62 cells assessed as growth inhibition at 10 uM after 48 hrs by SRB assay relative to control
Type: functional
Details: HOP-62, 48 h, read-out: GI

Row | Compound | inhibition of growth at 10 µM [%]
7 | COc1ccc(CN2c3ccccc3Sc3ccccc32)c(C(F)(F)F)c1 | 59
8 | COc1ccc(CN2c3ccccc3Oc3ccccc32)cc1F | 48
9 | COc1ccc(CN2c3ccccc3Oc3ccccc32)cc1O | 58

Assay: Cytotoxicity against human SF295 cells assessed as growth inhibition after 48 hrs by SRB assay
Type: functional
Details: SF-295, 48 h

Row | Compound | GI50 [nM]
10 | COc1ccc(CN2c3ccccc3Sc3ccccc32)c(C(F)(F)F)c1 | 320

Assay: Cytotoxicity against human K562 cells assessed as growth inhibition after 48 hrs by SRB assay
Type: functional
Details: K562, 48 h

Row | Compound | GI50 [nM]
11 | COc1ccc(CN2c3ccccc3Sc3ccccc32)c(C(F)(F)F)c1 | 395

Assay: Cytotoxicity against human SF539 cells assessed as growth inhibition at 10 uM after 48 hrs by SRB assay relative to control
Type: functional
Details: SF-539, 48 h, read-out: GI

Row | Compound | inhibition of growth at 10 µM [%]
12 | COc1ccc(CN2c3ccccc3Sc3ccccc32)c(C(F)(F)F)c1 | 100
13 | COc1ccc(CN2c3ccccc3Oc3ccccc32)cc1F | 35
14 | COc1ccc(CN2c3ccccc3Oc3ccccc32)cc1O | 84

Assay: Cytotoxicity against human A498 cells assessed as growth inhibition at 10 uM after 48 hrs by SRB assay relative to control
Type: functional
Details: A498, 48 h, read-out: GI

Row | Compound | inhibition of growth at 10 µM [%]
15 | COc1ccc(CN2c3ccccc3Sc3ccccc32)c(C(F)(F)F)c1 | 96
16 | COc1ccc(CN2c3ccccc3Oc3ccccc32)cc1F | 46

Assay: Cytotoxicity against human HOP92 cells assessed as growth inhibition at 10 uM after 48 hrs by SRB assay relative to control
Type: functional
Details: HOP-92, 48 h, read-out: GI

Row | Compound | inhibition of growth at 10 µM [%]
17 | COc1ccc(CN2c3ccccc3Sc3ccccc32)c(C(F)(F)F)c1 | 61
18 | COc1ccc(CN2c3ccccc3Oc3ccccc32)cc1F | 33
19 | COc1ccc(CN2c3ccccc3Oc3ccccc32)cc1O | 67

Assay: Cytotoxicity against human 786-0 cells assessed as growth inhibition after 48 hrs by SRB assay
Type: functional
Details: 786-0, 48 h

Row | Compound | GI50 [nM]
20 | COc1ccc(CN2c3ccccc3Sc3ccccc32)c(C(F)(F)F)c1 | 9050

Assay: Cytotoxicity against human HL-60(TB) cells assessed as growth inhibition after 48 hrs by SRB assay
Type: functional
Details: HL-60, 48 h

Row | Compound | GI50 [nM]
21 | COc1ccc(CN2c3ccccc3Sc3ccccc32)c(C(F)(F)F)c1 | 412

Assay: Cytotoxicity against human HCT116 cells assessed as growth inhibition after 48 hrs by SRB assay
Type: functional
Details: HCT-116, 48 h

Row | Compound | GI50 [nM]
22 | COc1ccc(CN2c3ccccc3Sc3ccccc32)c(C(F)(F)F)c1 | 419

Assay: Cytotoxicity against human SR cells assessed as growth inhibition at 10 uM after 48 hrs by SRB assay relative to control
Type: functional
Details: read-out: GI

Row | Compound | inhibition of growth at 10 µM [%]
23 | COc1ccc(CN2c3ccccc3Sc3ccccc32)c(C(F)(F)F)c1 | 88
24 | COc1ccc(CN2c3ccccc3Oc3ccccc32)cc1F | 73
25 | COc1ccc(CN2c3ccccc3Oc3ccccc32)cc1O | 83

Assay: Cytotoxicity against human MDA-MB-231 cells assessed as growth inhibition at 10 uM after 48 hrs by SRB assay relative to control
Type: functional
Details: MDA-MB-231, 48 h, read-out: GI

Row | Compound | inhibition of growth at 10 µM [%]
26 | COc1ccc(CN2c3ccccc3Sc3ccccc32)c(C(F)(F)F)c1 | 59
27 | COc1ccc(CN2c3ccccc3Oc3ccccc32)cc1F | 47
28 | COc1ccc(CN2c3ccccc3Oc3ccccc32)cc1O | 43

Assay: Cytotoxicity against human HCT15 cells assessed as growth inhibition after 48 hrs by SRB assay
Type: functional
Details: HCT-15, 48 h

Row | Compound | GI50 [nM]
29 | COc1ccc(CN2c3ccccc3Sc3ccccc32)c(C(F)(F)F)c1 | 489

Assay: Cytotoxicity against human LOXIMVI cells assessed as growth inhibition at 10 uM after 48 hrs by SRB assay relative to control
Type: functional
Details: LOX IMVI, read-out: GI

Row | Compound | inhibition of growth at 10 µM [%]
30 | COc1ccc(CN2c3ccccc3Sc3ccccc32)c(C(F)(F)F)c1 | 45
31 | COc1ccc(CN2c3ccccc3Oc3ccccc32)cc1F | 41
32 | COc1ccc(CN2c3ccccc3Oc3ccccc32)cc1O | 61

Assay: Cytotoxicity against human HT-29 cells assessed as growth inhibition after 48 hrs by SRB assay
Type: functional
Details: HT-29, 48 h

Row | Compound | GI50 [nM]
33 | COc1ccc(CN2c3ccccc3Sc3ccccc32)c(C(F)(F)F)c1 | 681

Assay: Cytotoxicity against human SK-MEL-2 cells assessed as growth inhibition after 48 hrs by SRB assay
Type: functional
Details: SK-MEL-2, 48 h

Row | Compound | GI50 [nM]
34 | COc1ccc(CN2c3ccccc3Sc3ccccc32)c(C(F)(F)F)c1 | 1180

Assay: Cytotoxicity against human NCI-ADR-RES cells assessed as growth inhibition after 48 hrs by SRB assay
Type: functional
Details: not given

Row | Compound | GI50 [nM]
35 | COc1ccc(CN2c3ccccc3Sc3ccccc32)c(C(F)(F)F)c1 | 462

Assay: Cytotoxicity against human BT549 cells assessed as growth inhibition at 10 uM after 48 hrs by SRB assay relative to control
Type: functional
Details: BT-549, 48 h, read-out: GI

Row | Compound | inhibition of growth at 10 µM [%]
36 | COc1ccc(CN2c3ccccc3Sc3ccccc32)c(C(F)(F)F)c1 | 47
37 | COc1ccc(CN2c3ccccc3Oc3ccccc32)cc1F | 30
38 | COc1ccc(CN2c3ccccc3Oc3ccccc32)cc1O | 60

Assay: Cytotoxicity against human NCI-H460 cells assessed as growth inhibition after 48 hrs by SRB assay
Type: functional
Details: NCI-H460, 48 h

Row | Compound | GI50 [nM]
39 | COc1ccc(CN2c3ccccc3Sc3ccccc32)c(C(F)(F)F)c1 | 456

Assay: Cytotoxicity against human SK-MEL-5 cells assessed as growth inhibition after 48 hrs by SRB assay
Type: functional
Details: SK-MEL-5, 48 h

Row | Compound | GI50 [nM]
40 | COc1ccc(CN2c3ccccc3Sc3ccccc32)c(C(F)(F)F)c1 | 500

Assay: Cytotoxicity against human NCI-H522 cells assessed as growth inhibition after 48 hrs by SRB assay
Type: functional
Details: NCI-H522, 48 h

Row | Compound | GI50 [nM]
41 | COc1ccc(CN2c3ccccc3Sc3ccccc32)c(C(F)(F)F)c1 | 314

Assay: Cytotoxicity against human COLO205 cells assessed as growth inhibition after 48 hrs by SRB assay
Type: functional
Details: COLO 205, 48 h

Row | Compound | GI50 [nM]
42 | COc1ccc(CN2c3ccccc3Sc3ccccc32)c(C(F)(F)F)c1 | 640

Assay: Cytotoxicity against human HCC2998 cells assessed as growth inhibition after 48 hrs by SRB assay
Type: functional
Details: HCC 2998, 48 h

Row | Compound | GI50 [nM]
43 | COc1ccc(CN2c3ccccc3Sc3ccccc32)c(C(F)(F)F)c1 | 2000

Assay: Cytotoxicity against human MOLT4 cells assessed as growth inhibition after 48 hrs by SRB assay
Type: functional
Details: MOLT-4, 48 h

Row | Compound | GI50 [nM]
44 | COc1ccc(CN2c3ccccc3Sc3ccccc32)c(C(F)(F)F)c1 | 288

Assay: Cytotoxicity against human Caki1 cells assessed as growth inhibition at 10 uM after 48 hrs by SRB assay relative to control
Type: functional
Details: CAKI-1, 48 h, read-out: GI

Row | Compound | inhibition of growth at 10 µM [%]
45 | COc1ccc(CN2c3ccccc3Sc3ccccc32)c(C(F)(F)F)c1 | 67
46 | COc1ccc(CN2c3ccccc3Oc3ccccc32)cc1F | 41
47 | COc1ccc(CN2c3ccccc3Oc3ccccc32)cc1O | 61

Assay: Cytotoxicity against human M14 cells assessed as growth inhibition after 48 hrs by SRB assay
Type: functional
Details: M14, 48 h

Row | Compound | GI50 [nM]
48 | COc1ccc(CN2c3ccccc3Sc3ccccc32)c(C(F)(F)F)c1 | 446

Assay: Cytotoxicity against human CCRF-CEM cells assessed as growth inhibition after 48 hrs by SRB assay
Type: functional
Details: not given

Row | Compound | GI50 [nM]
49 | COc1ccc(CN2c3ccccc3Sc3ccccc32)c(C(F)(F)F)c1 | 454

Assay: Cytotoxicity against human U251 cells assessed as growth inhibition after 48 hrs by SRB assay
Type: functional
Details: U-251, 48 h

Row | Compound | GI50 [nM]
50 | COc1ccc(CN2c3ccccc3Sc3ccccc32)c(C(F)(F)F)c1 | 431

Assay: Cytotoxicity against human SKOV3 cells assessed as growth inhibition at 10 uM after 48 hrs by SRB assay relative to control
Type: functional
Details: SK-OV-3, 48 h, read-out: GI

Row | Compound | inhibition of growth at 10 µM [%]
51 | COc1ccc(CN2c3ccccc3Sc3ccccc32)c(C(F)(F)F)c1 | 82
52 | COc1ccc(CN2c3ccccc3Oc3ccccc32)cc1F | 53
53 | COc1ccc(CN2c3ccccc3Oc3ccccc32)cc1O | 69

Assay: Cytotoxicity against human Hs 578T cells assessed as growth inhibition after 48 hrs by SRB assay
Type: functional
Details: not given

Row | Compound | GI50 [nM]
54 | COc1ccc(CN2c3ccccc3Sc3ccccc32)c(C(F)(F)F)c1 | 877

Assay: Cytotoxicity against human OVCAR8 cells assessed as growth inhibition at 10 uM after 48 hrs by SRB assay relative to control
Type: functional
Details: OVCAR-8, 48 h, read-out: GI

Row | Compound | inhibition of growth at 10 µM [%]
55 | COc1ccc(CN2c3ccccc3Sc3ccccc32)c(C(F)(F)F)c1 | 69
56 | COc1ccc(CN2c3ccccc3Oc3ccccc32)cc1F | 35
57 | COc1ccc(CN2c3ccccc3Oc3ccccc32)cc1O | 64

Assay: Cytotoxicity against human SW620 cells assessed as growth inhibition after 48 hrs by SRB assay
Type: functional
Details: SW-620, 48 h

Row | Compound | GI50 [nM]
58 | COc1ccc(CN2c3ccccc3Sc3ccccc32)c(C(F)(F)F)c1 | 443

Assay: Cytotoxicity against human TK10 cells assessed as growth inhibition at 10 uM after 48 hrs by SRB assay relative to control
Type: functional
Details: TK-10, 48 h, read-out: GI

Row | Compound | inhibition of growth at 10 µM [%]
59 | COc1ccc(CN2c3ccccc3Sc3ccccc32)c(C(F)(F)F)c1 | 34
60 | COc1ccc(CN2c3ccccc3Oc3ccccc32)cc1F | 26
61 | COc1ccc(CN2c3ccccc3Oc3ccccc32)cc1O | 36

Assay: Cytotoxicity against human SF295 cells assessed as growth inhibition at 10 uM after 48 hrs by SRB assay relative to control
Type: functional
Details: SF-295, 48 h, read-out: GI

Row | Compound | inhibition of growth at 10 µM [%]
62 | COc1ccc(CN2c3ccccc3Sc3ccccc32)c(C(F)(F)F)c1 | 98
63 | COc1ccc(CN2c3ccccc3Oc3ccccc32)cc1F | 67
64 | COc1ccc(CN2c3ccccc3Oc3ccccc32)cc1O | 86

Assay: Cytotoxicity against human BT549 cells assessed as growth inhibition after 48 hrs by SRB assay
Type: functional
Details: BT-549, 48 h

Row | Compound | GI50 [nM]
65 | COc1ccc(CN2c3ccccc3Sc3ccccc32)c(C(F)(F)F)c1 | 3120

Assay: Cytotoxicity against human NCI-H226 cells assessed as growth inhibition at 10 uM after 48 hrs by SRB assay relative to control
Type: functional
Details: NCI-H226, 48 h, read-out: GI

Row | Compound | inhibition of growth at 10 µM [%]
66 | COc1ccc(CN2c3ccccc3Sc3ccccc32)c(C(F)(F)F)c1 | 42
67 | COc1ccc(CN2c3ccccc3Oc3ccccc32)cc1O | 6

Assay: Cytotoxicity against human Caki1 cells assessed as growth inhibition after 48 hrs by SRB assay
Type: functional
Details: CAKI-1, 48 h

Row | Compound | GI50 [nM]
68 | COc1ccc(CN2c3ccccc3Sc3ccccc32)c(C(F)(F)F)c1 | 1530

Assay: Cytotoxicity against human OVCAR5 cells assessed as growth inhibition after 48 hrs by SRB assay
Type: functional
Details: OVCAR-5, 48 h

Row | Compound | GI50 [nM]
69 | COc1ccc(CN2c3ccccc3Sc3ccccc32)c(C(F)(F)F)c1 | 9750

Assay: Cytotoxicity against human SNB75 cells assessed as growth inhibition at 10 uM after 48 hrs by SRB assay relative to control
Type: functional
Details: SNB-75, 48 h, read-out: GI

Row | Compound | inhibition of growth at 10 µM [%]
70 | COc1ccc(CN2c3ccccc3Sc3ccccc32)c(C(F)(F)F)c1 | 92
71 | COc1ccc(CN2c3ccccc3Oc3ccccc32)cc1F | 52
72 | COc1ccc(CN2c3ccccc3Oc3ccccc32)cc1O | 73
